# Data published in paper PMC12504763, “Antiproliferation, 3D-multicellular spheroid and VEGFR-2 inhibitory properties of spiroindolin-2-ones with phosphonate function” (Scientific Reports, 2025).
# Read-outs that look alike come from different tables or passages of the source.
# Experiments:
# [1] = test system: HCT116 (colon) cancer cell line; assay: 2D-monolayer antiproliferation (MTT) against HCT116; assay type: cell-based, human; settings: for IC50: Homo sapiens, HCT-116; for SI (selectivity index) HCT116: IC50 of RPE1 normal cell/IC50 of HCT116
# VEGFR-2 [2] = biological target: T1, VEGFR-2 (Homo sapiens, UniProt P35968); assay: cell-based; assay type: cell-based; settings: for inhibition at 10 µM: HCT-116, HCT116; for VEGFR-2 pg/mL ± SEM HCT116: at 10 μM, control 317.80 ± 3.5
# T1 construct: endogenous in cells; host or cells: HCT116, PaCa2, MCF7 (human cancer cell lines, ATCC origin)
# TNF-α [3] = assay: TNF-α inhibitory properties (ELISA), MCF7 cell lysate; assay type: cell-based, human; settings: at 10 μM; for TNF-α pg/mL (± SEM) MCF7: control 83.26 ± 1.1
# VEGFR-2 [4] = biological target: T1, VEGFR-2; assay: cell-based; assay type: cell-based; settings: for inhibition at 10 µM: PaCa-2, PaCa2; for VEGFR-2 pg/mL ± SEM PaCa2: at 10 μM, control 326.80 ± 1.9
# [5] = test system: RPE1 (normal human immortalized retinal pigment epithelial cell line); assay: cells; assay type: cell-based; settings: Homo sapiens, RPE-1; MTT, normal RPE1 cell; read-out: IC50, μM ± SEM RPE1
# COX-1 = biological target: T2, COX-1 (Ovis aries, UniProt P05979); assay: biochemical; settings: 3 replicates, read-out: % Inhibition of COX-1 ± SEM
# T2 construct: purchased BioVision incorporated USA K548–100
# T2 sequence (P05979 25-600): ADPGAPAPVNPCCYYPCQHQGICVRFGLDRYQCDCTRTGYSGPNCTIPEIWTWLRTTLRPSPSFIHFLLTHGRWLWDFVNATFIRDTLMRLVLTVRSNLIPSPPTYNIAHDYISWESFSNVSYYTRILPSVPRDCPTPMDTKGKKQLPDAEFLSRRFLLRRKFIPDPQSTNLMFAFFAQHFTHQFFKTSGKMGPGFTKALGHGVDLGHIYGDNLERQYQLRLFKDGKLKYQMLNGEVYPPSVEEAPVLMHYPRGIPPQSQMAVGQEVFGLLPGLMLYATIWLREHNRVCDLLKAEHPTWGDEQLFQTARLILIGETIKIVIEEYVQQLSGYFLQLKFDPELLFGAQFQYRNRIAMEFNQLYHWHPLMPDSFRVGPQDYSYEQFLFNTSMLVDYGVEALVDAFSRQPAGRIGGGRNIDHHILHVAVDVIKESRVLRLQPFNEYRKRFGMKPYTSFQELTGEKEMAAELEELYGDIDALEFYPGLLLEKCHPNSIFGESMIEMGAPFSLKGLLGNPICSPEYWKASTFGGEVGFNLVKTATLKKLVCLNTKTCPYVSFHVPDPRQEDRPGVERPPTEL
# VEGFR-2 [6] = biological target: T1, VEGFR-2; assay: cell-based; assay type: cell-based; settings: for inhibition at 10 µM: MCF7; for VEGFR-2 pg/mL ± SEM MCF7: at 10 μM, control 258.70 ± 2.3
# [7] = test system: A549 (lung) cancer cell line; assay: 2D-monolayer antiproliferation (MTT) against A549; assay type: cell-based, human; settings: for IC50: Homo sapiens, MTT, 72 h incubation, A549 lung, read-out: IC50, μM ± SEM A549; for SI (selectivity index) A549: IC50 of RPE1 normal cell/IC50 of A549
# COX-2 = biological target: T3, COX-2 (Homo sapiens, UniProt P35354); assay: biochemical; settings: for inhibition at 10 µM: 3 replicates, read-out: % Inhibition of COX-2 ± SEM; for SI (selectivity index, COX-2/COX-1): at 10 μM
# T3 construct: purchased BioVision incorporated USA K548–100
# T3 sequence (P35354 18-604): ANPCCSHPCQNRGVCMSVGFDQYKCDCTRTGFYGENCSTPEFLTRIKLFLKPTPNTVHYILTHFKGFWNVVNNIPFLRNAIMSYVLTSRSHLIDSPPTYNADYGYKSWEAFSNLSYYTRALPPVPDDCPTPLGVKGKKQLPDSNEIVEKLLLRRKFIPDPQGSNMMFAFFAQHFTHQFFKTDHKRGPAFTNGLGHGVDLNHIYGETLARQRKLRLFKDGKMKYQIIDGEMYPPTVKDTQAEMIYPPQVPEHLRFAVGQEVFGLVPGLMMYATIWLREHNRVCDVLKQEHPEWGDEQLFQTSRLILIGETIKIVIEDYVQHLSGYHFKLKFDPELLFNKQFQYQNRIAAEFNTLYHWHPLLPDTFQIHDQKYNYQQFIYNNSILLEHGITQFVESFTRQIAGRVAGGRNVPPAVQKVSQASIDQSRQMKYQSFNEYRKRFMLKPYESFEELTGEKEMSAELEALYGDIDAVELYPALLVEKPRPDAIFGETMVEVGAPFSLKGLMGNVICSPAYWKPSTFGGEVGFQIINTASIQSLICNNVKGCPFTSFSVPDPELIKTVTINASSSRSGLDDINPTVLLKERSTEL
# [8] = test system: PaCa2 (pancreatic) cancer cell line; assay: 2D-monolayer antiproliferation (MTT) against PaCa2; assay type: cell-based, human; settings: for IC50: Homo sapiens, PaCa-2, MTT, 72 h incubation, PaCa2 pancreatic, read-out: IC50, μM ± SEM PaCa2; for SI (selectivity index) PaCa2: IC50 of RPE1 normal cell/IC50 of PaCa2
# TNF-α [9] = assay: TNF-α inhibitory properties (ELISA), PaCa2 cell lysate; assay type: cell-based, human; settings: at 10 μM; for TNF-α pg/mL (± SEM) PaCa2: control 111.8 ± 2.0
# TNF-α [10] = assay: TNF-α inhibitory properties (ELISA), HCT116 cell lysate; assay type: cell-based, human; settings: at 10 μM; for TNF-α pg/mL (± SEM) HCT116: control 95.74 ± 0.5
# [11] = test system: MCF7 (breast) cancer cell line; assay: 2D-monolayer antiproliferation (MTT) against MCF7; assay type: cell-based, human; settings: for IC50: Homo sapiens, MTT, 72 h incubation, MCF7 breast, read-out: IC50, μM ± SEM MCF7; for SI (selectivity index) MCF7: IC50 of RPE1 normal cell/IC50 of MCF7
# [12] = MTT, 72 h incubation, HCT116 colon, read-out: IC50, μM ± SEM HCT116
# [13] = log of observed IC50 (μM), HCT116, read-out: Log(observed property) (converted)
# T1 sequence (P35968 20-1356): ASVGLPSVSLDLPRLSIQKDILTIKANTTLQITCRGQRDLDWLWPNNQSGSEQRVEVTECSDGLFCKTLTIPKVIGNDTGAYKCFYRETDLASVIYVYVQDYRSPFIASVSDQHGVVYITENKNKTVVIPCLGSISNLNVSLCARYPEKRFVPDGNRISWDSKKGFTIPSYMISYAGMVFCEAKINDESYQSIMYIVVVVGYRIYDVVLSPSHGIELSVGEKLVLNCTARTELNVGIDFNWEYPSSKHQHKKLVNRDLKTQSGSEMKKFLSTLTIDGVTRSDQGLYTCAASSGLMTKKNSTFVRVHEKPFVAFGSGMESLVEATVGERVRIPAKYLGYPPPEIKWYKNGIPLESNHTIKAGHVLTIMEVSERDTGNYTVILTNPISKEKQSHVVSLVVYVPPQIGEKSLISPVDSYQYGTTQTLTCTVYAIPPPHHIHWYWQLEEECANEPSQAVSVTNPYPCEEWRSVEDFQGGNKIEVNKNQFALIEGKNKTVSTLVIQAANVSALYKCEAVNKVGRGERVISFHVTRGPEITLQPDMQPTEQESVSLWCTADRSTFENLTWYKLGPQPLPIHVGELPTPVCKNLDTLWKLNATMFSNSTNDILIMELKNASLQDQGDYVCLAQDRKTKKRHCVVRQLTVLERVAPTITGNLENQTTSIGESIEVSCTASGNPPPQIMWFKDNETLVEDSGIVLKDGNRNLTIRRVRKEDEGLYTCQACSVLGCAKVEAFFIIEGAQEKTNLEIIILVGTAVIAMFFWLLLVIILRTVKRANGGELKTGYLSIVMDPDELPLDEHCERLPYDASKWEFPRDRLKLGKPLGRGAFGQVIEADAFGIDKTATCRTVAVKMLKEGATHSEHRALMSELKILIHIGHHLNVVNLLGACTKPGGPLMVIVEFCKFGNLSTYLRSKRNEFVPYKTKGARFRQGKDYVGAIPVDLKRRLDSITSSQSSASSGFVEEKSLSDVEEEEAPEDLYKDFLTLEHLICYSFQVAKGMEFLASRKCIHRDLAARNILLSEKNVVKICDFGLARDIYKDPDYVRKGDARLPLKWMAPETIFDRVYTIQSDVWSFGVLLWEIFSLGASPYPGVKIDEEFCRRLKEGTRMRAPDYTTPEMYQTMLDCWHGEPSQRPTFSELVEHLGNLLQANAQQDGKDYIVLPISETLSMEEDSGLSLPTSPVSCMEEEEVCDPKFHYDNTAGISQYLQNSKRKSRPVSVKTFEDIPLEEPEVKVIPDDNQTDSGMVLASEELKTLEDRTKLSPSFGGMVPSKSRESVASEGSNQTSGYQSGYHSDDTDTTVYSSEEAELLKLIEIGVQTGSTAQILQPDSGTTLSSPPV
Compound,"IC50 [1, 12]","IC50 [1, 13]",SI (selectivity index) HCT116 [1],inhibition at 10 µM (VEGFR-2 [2]),VEGFR-2 pg/mL ± SEM HCT116 (VEGFR-2 [2]),TNF-α pg/mL (± SEM) MCF7 (TNF-α [3]),inhibition at 10 µM (VEGFR-2 [4]),VEGFR-2 pg/mL ± SEM PaCa2 (VEGFR-2 [4]),IC50 [5],inhibition at 10 µM (COX-1),inhibition at 10 µM (VEGFR-2 [6]),VEGFR-2 pg/mL ± SEM MCF7 (VEGFR-2 [6]),IC50 [7],SI (selectivity index) A549 [7],inhibition at 10 µM (COX-2),"SI (selectivity index, COX-2/COX-1) (COX-2)",IC50 [8],SI (selectivity index) PaCa2 [8],TNF-α % inhibition PaCa2 (TNF-α [9]),TNF-α pg/mL (± SEM) PaCa2 (TNF-α [9]),also measured
"CCOP(=O)(OCC)N1C/C(=C\c2ccc(F)cc2)C(=O)C2(C1)C(c1ccc(F)cc1)CN(C)C21C(=O)Nc2ccccc21 (centres unmarked) [Compound 17e, Diethyl (E)-[5′′-(4-fluorobenzylidene)-4′-(4-fluorophenyl)-1′-methyl-2,4′′-dioxodispiro[indoline-3,2′-pyrrolidine-3′,3′′-piperidin]-1′′-yl]phosphonate]",6.99 ± 0.101 µM,6.99 µM,2.4,66.2%,107.50 ± 2.0 pg/mL,81.87 ± 3.0 pg/mL,61%,127.43 ± 1.3 pg/mL,16.6 ± 0.907 µM,55 ± 3.6%,55%,116.50 ± 1.0 pg/mL,7.73 ± 0.155 µM,2.1,59.6 ± 1.3%,1.08,9.48 ± 0.278 µM,1.8,12.7%,97.6 ± 1.6 pg/mL,"TNF-α % inhibition MCF7 (TNF-α [3]): 1.7%; 1/(observed property) ([8]; 1/observed IC50 (μM), PaCa2): 0.1055; TNF-α % inhibition HCT116 (TNF-α [10]): 1.5%; TNF-α pg/mL (± SEM) HCT116 (TNF-α [10]): 94.27 ± 0.7 pg/mL; IC50 [11]: 5.64 ± 0.273 µM; SI (selectivity index) MCF7 [11]: 2.9"
"CCOP(=O)(OCC)N1C/C(=C\c2ccccc2)C(=O)C2(C1)C(c1ccccc1)CN(C)C21C(=O)Nc2ccc(F)cc21 (centres unmarked) [Compound 17b, Diethyl (E)-(5′′-benzylidene-5-fluoro-1′-methyl-2,4′′-dioxo-4′-phenyldispiro[indoline-3,2′-pyrrolidine-3′,3′′-piperidin]-1′′-yl)phosphonate]",7.41 ± 0.228 µM,7.41 µM,3.1,77%,73.25 ± 2.0 pg/mL,82.25 ± 2.6 pg/mL,88.1%,38.75 ± 1.4 pg/mL,23.1 ± 0.884 µM,53.7 ± 3.7%,70.2%,77.20 ± 0.6 pg/mL,11 ± 0.135 µM,2.1,61.3 ± 2.6%,1.04,12.2 ± 0.297 µM,1.9,5.5%,105.7 ± 3.9 pg/mL,TNF-α % inhibition HCT116 (TNF-α [10]): 1.1%; TNF-α pg/mL (± SEM) HCT116 (TNF-α [10]): 94.64 ± 2.2 pg/mL; IC50 [11]: 5.83 ± 0.213 µM; SI (selectivity index) MCF7 [11]: 4.0
